Consider 66 compounds from PubChem BioAssay AID449750 (Broad Institute, 2010).

A short description of this assay: non-covalent RecA intein splicing inhibitors, dose response, biochemical, cell-free, fluorescence, secondary screen (AID 449750).

Active and inactive are the calls of the source. The rule behind the calls is not given here. Some results are limits rather than exact numbers.

Consider `O=C1NC(c2ccc(-c3ccccc3[N+](=O)[O-])o2)C(C(=O)c2ccc(F)cc2)C(O)(C(F)(F)F)N1` (stereo unspecified), for which the AC50 (as a rule, the concentration at which the activity in the assay is half-maximal) was 34.4 µM. The result for `O=c1cc(-c2cccc3ccccc23)[nH][nH]1` reads 12.1 µM. Under `CCOC(=O)C1(CCOc2ccccc2)CCN(Cc2ccc(O)c(Cl)c2)CC1` stands > 38 µM (inactive); under `O=C(CCl)Nc1ccc(N2CCCCCC2)cc1`, 6.59 µM.

Take `Cc1cc(O)ccc1Nc1nc(-c2cccs2)cs1`: the AC50 was 31.7 µM. Under `CCOC(=O)C1CCN(Cc2cc(C(C)C)c(O)c(C(C)C)c2)CC1` stands > 38 µM (inactive).

For the compound `CCOc1ccc(C(c2c(C)[nH][nH]c2=O)c2c(C)[nH][nH]c2=O)cc1OCC`, the AC50 was 9.1 µM. Take `Cc1ccc(NC(=O)CSc2ncnc3ccccc23)cc1S(=O)(=O)N1CCCCCC1`: the AC50 is 30.2 µM. In the case of `COc1ccc(-c2nnc(Sc3nc4ccccc4o3)c3ccccc23)cc1`, the AC50 was 18.8 µM.

Consider `C=CCn1c(NC(=O)c2ccc(Br)o2)c(S(=O)(=O)c2ccccc2)c2nc3ccccc3nc21`, for which the AC50 is > 38 µM (inactive).

With `CNC(=O)c1nnsc1S(=O)(=O)c1ccc(Cl)cc1`, the AC50 is > 38 µM (inactive). Take `Cc1ccc(C(=O)c2coc3cc([N+](=O)[O-])c(O)c([N+](=O)[O-])c23)cc1`: the AC50 is > 38 µM (inactive). The result for `CCOc1ccc(S(=O)(=O)Nc2cc(SCC(=O)O)c(O)c3ccccc23)cc1` reads 2.81 µM; that for `C#CCOC(=O)c1ccccc1C(=O)n1nnc2ccccc21`, > 38 µM (inactive); that for `O=C(O)CN1C(=O)/C(=C\c2cccc(OC(=O)c3ccco3)c2)SC1=S`, > 38 µM (inactive).

`CCOC(=O)c1ccc(CC2S/C(=C(\C#N)C(C)=O)NC2=O)cc1` (stereo unspecified): the AC50 was > 38 µM (inactive).

Regarding `O=C(Nc1ncc([N+](=O)[O-])s1)c1ccco1`, the AC50 was > 38 µM (inactive). In the case of `COc1cc(C(c2c(C)[nH][nH]c2=O)c2c(C)[nH][nH]c2=O)cc([N+](=O)[O-])c1O`, the AC50 is 10.7 µM. Under `CCCCOc1ccc(C(=O)C(CN2CCOCC2)c2ccccc2)cc1` (stereo unspecified) stands 7.35 µM; under `Cc1[nH]n(-c2ccccc2)c(=O)c1/C=C1\C=NN=C1c1ccccc1`, 17 µM; under `CCc1ccc(S(=O)(=O)/N=C2\C=CC(=O)c3ccccc32)cc1`, 2.6 µM. The result for `O=C(NC1CCCC1)C(c1ccc(F)cc1)N(Cc1ccc(F)cc1)C(=O)CCl` (stereo unspecified) reads 2.96 µM; that for `O=C(Cc1cc(=O)[nH][nH]1)N/N=C/c1ccccc1Cl`, 15.8 µM; that for `CS(=O)(=O)C1=NSC2=NC(=O)/C(=C\c3ccc(OC(=O)c4ccco4)cc3)C(=N)N21`, > 38 µM (inactive). Consider `COc1ccc(OC)c(NC(=O)Cc2ccc(NC3=NC4CS(=O)(=O)CC4S3)cc2)c1` (stereo unspecified), for which the AC50 was > 38 µM (inactive). Under `CCCc1[nH]nc2c1C(c1ccc(OCCN3CCOCC3)c(OCC)c1)C(C#N)=C(N)O2` (stereo unspecified) stands > 38 µM (inactive). Take `COc1ccc(N(C(=O)CCl)C(C(=O)NC2CCCCC2)c2cccnc2)cc1` (stereo unspecified): the AC50 is 3.87 µM. `O=[N+]([O-])c1cc([N+](=O)[O-])c2oc(-c3ccccc3)c(Br)c2c1O`: the AC50 is 2.04 µM. Consider `N#C/C(=C\c1cc(Cl)c(OCc2ccc(Cl)cc2)c(Cl)c1)C(N)=O`, for which the AC50 was 9.11 µM.

Turning to `O=C(Nc1ccccc1)NN(C(=O)CCl)c1ccccc1`, the AC50 was 6.12 µM. Take `O=C(O)/C=C/C(=O)Nc1ccc(C2(c3ccc(NC(=O)/C=C/C(=O)O)cc3)c3ccccc3-c3ccccc32)cc1`: the AC50 is 4.61 µM. As for `CCCCCc1cc(=O)oc2c(C(CCN3CCCC(C)C3)c3ccc4c(c3)OCO4)c(OC)cc(OC)c12` (stereo unspecified), the AC50 was 10.5 µM. Under `CCOC(=O)CNc1nnc(SCC(=O)OCC)[nH]c1=O` stands 10.2 µM; under `O=C1C=C(Nc2cccc3cccnc23)c2ccccc2C1=O`, 24.2 µM; under `O=C(CCl)Nc1ccc(-c2ccccc2)cc1`, 5.56 µM. Under `Cc1ccc(S(=O)(=O)NCC2CCC(C(=O)NCCCN3CCOCC3)CC2)cc1` (stereo unspecified) stands > 38 µM (inactive); under `CC1=NN(c2ccccc2)C(=O)/C1=C\c1cn(CCC#N)nc1-c1ccc(Cl)cc1`, > 38 µM (inactive); under `CCCc1[nH]nc2c1C(c1ccc(OC(=O)N3CCOCC3)cc1)C(C#N)=C(N)O2` (stereo unspecified), > 38 µM (inactive). Under `O=C(CCCN1C(=O)/C(=C\c2cccs2)SC1=S)Nc1ccc(O)cc1` stands > 38 µM (inactive); under `Cc1cc(=O)n(C2CCS(=O)(=O)C2)[nH]1` (stereo unspecified), 3.63 µM; under `CC1CCc2c(c3ccccc3n2C(=O)CCl)C1` (stereo unspecified), 6.54 µM. As for `Cc1cc2[nH]ncc2cc1NC(=S)NC(=O)c1ccccc1`, the AC50 was > 38 µM (inactive). For `CC(=O)c1cccc2c(O)c(C3=Nc4ccccc4C3=O)[nH]c12`, the AC50 was 34.6 µM. Regarding `COc1cccc(C(=O)O/N=C(\N)c2ccc([N+](=O)[O-])cc2)c1OC`, the AC50 was > 38 µM (inactive). In the case of `Oc1cnn(-c2ccccc2)c1`, the AC50 was > 38 µM (inactive). The result for `[O-][n+]1c2c(nc3c1-c1ccccc1C3O)CCCC2` (stereo unspecified) reads 31.2 µM; that for `[O-]C1=N/[N+](=C/c2ccc(Cl)cc2)CC1`, > 38 µM (inactive); that for `CC(C)(C)OC(=O)N/N=C\c1ccc(OC(=O)c2ccco2)cc1`, > 38 µM (inactive). On to `CCCCCC(=O)O[C@]1(C(C)=O)CC[C@H]2[C@@H]3CCC4=CC(=O)CC[C@]4(C)[C@H]3CC[C@@]21C`, for which the AC50 is 2.02 µM. Under `COc1cccc(/C=C/C(=O)c2ccc(NS(=O)(=O)c3ccc(C)cc3)cc2)c1` stands 6.79 µM. Regarding `O=C(O)c1ccc(NC2=C(n3nnc4ccccc43)C(=O)c3ccccc3C2=O)cc1`, the AC50 was 3.84 µM. For the compound `Cn1ncnc2c(=O)n(C)c(=O)nc1-2`, the AC50 was 0.0837 µM. On to `N[C@@H]1CCCC[C@H]1N.O=C(O)C(=O)O.[Pt]`, for which the AC50 was > 38 µM (inactive).

In the case of `CCOC(=O)c1c(CC(C)C)csc1NC(=O)CCl`, the AC50 was 3.33 µM. The result for `C/C(CC(=O)Nc1ccccn1)=N\NC(=O)c1cccc(C)c1` reads > 38 µM (inactive). The result for `O=C(O)CC1OCC=C2CN3CCC45C6=CC(=O)C(=O)C([N+](=O)[O-])=C6NC4C1C2CC35` (stereo unspecified) reads 32.5 µM; that for `C/C(CC(=O)Nc1cc(C)ccn1)=N\NC(=O)c1ccccc1C`, > 38 µM (inactive); that for `CC1=NN(c2ccc(S(=O)(=O)O)cc2Cl)C(=O)C1`, 3.66 µM. `CNC(=O)/C(C#N)=C/c1c(N(Cc2ccccc2)Cc2ccccc2)nc2c(C)cccn2c1=O`: the AC50 is 13 µM.

Take `O=C(C1=C(c2ccccc2)C(=O)c2ccccc2C1=O)c1ccccc1`: the concentration at half-maximal activity (AC50) was 3.45 µM.

In the case of `CC1=C(CC(=O)c2ccc(Cl)cc2)C(=O)c2ccccc2C1=O`, the AC50 is 16.3 µM. On to `COc1cc(-n2nc(C)c3c2OC(N)=C(C#N)C3c2ccccc2)c(Cl)c(Br)c1O` (stereo unspecified), for which the AC50 was 16 µM. As for `O=C(CCl)Nc1sccc1C(=O)c1ccccc1`, the AC50 is 14 µM. Under `O=C(Cc1cc(=O)[nH][nH]1)N/N=C/c1cccc2ccccc12` stands 17.4 µM; under `O=C(CNC1=NCCC1)c1ccc(Cl)cc1`, > 38 µM (inactive). Under `Cc1ccc(NC2=C(Cl)C(=O)OC2OC(=O)c2ccco2)cc1C` (stereo unspecified) stands > 38 µM (inactive).
